What was measured:
[1] = target: T1, Muscarinic acetylcholine receptor M1 (Homo sapiens, UniProt P11229); experiment: Binding affinity against Muscarinic acetylcholine receptor M1
T1 sequence (P11229 whole entry): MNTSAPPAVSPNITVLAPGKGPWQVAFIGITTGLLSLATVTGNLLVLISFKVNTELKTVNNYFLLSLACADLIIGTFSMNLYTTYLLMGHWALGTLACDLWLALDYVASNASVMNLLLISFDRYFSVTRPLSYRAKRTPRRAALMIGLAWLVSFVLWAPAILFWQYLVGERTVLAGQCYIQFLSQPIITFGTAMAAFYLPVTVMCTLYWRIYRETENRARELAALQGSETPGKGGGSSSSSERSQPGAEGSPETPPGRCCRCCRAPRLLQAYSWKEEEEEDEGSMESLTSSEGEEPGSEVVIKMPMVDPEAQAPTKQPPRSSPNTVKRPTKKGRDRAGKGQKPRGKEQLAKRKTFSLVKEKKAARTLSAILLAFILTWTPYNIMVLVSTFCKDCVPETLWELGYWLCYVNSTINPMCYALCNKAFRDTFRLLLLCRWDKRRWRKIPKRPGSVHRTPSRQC

[2] = target: T2, Muscarinic acetylcholine receptor M4 (Homo sapiens, UniProt P08173); experiment: Binding affinity against Muscarinic acetylcholine receptor M4
T2 sequence (P08173 whole entry): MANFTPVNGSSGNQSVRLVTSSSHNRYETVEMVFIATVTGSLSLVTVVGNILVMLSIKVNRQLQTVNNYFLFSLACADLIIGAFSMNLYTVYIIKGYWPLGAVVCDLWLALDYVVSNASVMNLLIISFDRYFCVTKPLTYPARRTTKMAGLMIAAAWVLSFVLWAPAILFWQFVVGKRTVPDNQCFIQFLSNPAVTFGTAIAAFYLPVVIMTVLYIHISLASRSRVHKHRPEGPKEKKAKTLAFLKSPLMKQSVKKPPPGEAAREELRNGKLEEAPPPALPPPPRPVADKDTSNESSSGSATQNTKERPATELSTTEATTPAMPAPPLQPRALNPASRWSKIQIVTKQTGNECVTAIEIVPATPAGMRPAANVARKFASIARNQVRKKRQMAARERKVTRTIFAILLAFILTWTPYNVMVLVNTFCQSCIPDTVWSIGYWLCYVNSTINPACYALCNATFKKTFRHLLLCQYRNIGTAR

[3] = target: Muscarinic acetylcholine receptor M3 (Homo sapiens, UniProt P20309); experiment: Binding affinity against Muscarinic acetylcholine receptor M3
Sequence of Muscarinic acetylcholine receptor M3 (P20309 whole entry): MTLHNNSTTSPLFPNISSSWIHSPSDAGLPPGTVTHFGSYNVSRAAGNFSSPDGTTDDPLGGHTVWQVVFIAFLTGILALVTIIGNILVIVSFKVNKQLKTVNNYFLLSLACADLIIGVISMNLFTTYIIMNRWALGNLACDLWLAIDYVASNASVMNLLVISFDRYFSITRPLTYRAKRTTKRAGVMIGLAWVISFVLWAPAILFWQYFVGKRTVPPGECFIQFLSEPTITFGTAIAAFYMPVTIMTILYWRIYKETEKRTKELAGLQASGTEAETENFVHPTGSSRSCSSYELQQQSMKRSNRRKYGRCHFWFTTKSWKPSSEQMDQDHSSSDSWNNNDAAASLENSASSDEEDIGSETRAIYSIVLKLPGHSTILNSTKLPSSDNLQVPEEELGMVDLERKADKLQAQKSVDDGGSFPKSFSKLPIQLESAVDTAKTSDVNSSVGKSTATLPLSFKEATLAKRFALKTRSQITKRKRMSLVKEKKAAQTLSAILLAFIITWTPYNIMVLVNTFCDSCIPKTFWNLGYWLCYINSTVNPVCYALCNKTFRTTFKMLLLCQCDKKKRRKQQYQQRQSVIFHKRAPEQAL

[4] = target: T3, Muscarinic acetylcholine receptor M5 (Homo sapiens, UniProt P08912); experiment: The compound was tested for the binding affinity against Muscarinic acetylcholine receptor M5
T3 sequence (P08912 whole entry): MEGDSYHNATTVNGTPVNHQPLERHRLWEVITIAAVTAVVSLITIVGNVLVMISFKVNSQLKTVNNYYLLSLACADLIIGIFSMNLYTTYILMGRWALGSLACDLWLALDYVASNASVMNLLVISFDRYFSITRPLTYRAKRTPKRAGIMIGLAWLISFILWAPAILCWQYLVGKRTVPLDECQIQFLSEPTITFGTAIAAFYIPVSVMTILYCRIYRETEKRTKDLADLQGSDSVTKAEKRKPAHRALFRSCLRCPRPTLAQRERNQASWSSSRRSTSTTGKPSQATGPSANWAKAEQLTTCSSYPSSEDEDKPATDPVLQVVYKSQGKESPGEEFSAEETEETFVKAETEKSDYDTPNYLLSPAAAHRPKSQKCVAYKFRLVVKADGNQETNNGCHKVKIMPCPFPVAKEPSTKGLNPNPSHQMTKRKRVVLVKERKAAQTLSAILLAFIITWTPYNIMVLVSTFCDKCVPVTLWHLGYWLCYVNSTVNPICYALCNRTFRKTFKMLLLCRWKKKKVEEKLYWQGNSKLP

[5] = target: T4, Muscarinic acetylcholine receptor M2 (Homo sapiens, UniProt P08172); experiment: Binding affinity against Muscarinic acetylcholine receptor M2
T4 sequence (P08172 whole entry): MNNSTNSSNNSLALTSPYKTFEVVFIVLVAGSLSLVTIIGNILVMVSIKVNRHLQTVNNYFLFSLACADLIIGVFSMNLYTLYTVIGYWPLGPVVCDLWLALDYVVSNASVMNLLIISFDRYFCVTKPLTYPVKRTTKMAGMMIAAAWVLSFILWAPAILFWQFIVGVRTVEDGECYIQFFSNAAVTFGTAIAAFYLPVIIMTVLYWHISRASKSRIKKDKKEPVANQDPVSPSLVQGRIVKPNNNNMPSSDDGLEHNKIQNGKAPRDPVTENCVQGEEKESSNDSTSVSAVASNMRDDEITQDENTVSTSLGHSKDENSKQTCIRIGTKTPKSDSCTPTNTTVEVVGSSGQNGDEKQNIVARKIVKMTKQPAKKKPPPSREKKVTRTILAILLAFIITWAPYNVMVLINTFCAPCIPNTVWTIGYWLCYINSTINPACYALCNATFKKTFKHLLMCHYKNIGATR

Row | SMILES | Ki [1] | Ki [2] | Ki [3] | Ki [4] | Ki [5]
1 | COc1ccc([S@@+]([O-])c2ccc(C(C#N)N3CCN(C4CCCCC4)CC3)cc2)cc1 (some centres not stated) | 112 nM | 14.8 nM | 29.4 nM | 309 nM | 2.78 nM
2 | COc1ccc([S@@+]([O-])c2ccc(C(C#N)C3CCN(C4CCCCC4)CC3)cc2)cc1 (some centres not stated) | 113 nM | 12.7 nM | 37 nM | – | 7.67 nM
3 | COc1ccc([S@+]([O-])c2ccc(C(C#N)N3CCN(C4CCCCC4)CC3)cc2)cc1 (some centres not stated) | 253 nM | 18.4 nM | – | – | 17.3 nM
4 | COc1ccc([S@@+]([O-])c2ccc(C(=O)C3CCN(C4CCCCC4)CC3)cc2)cc1 | 104 nM | 17.9 nM | 27.8 nM | – | 3.58 nM
5 | COc1ccc([S@+]([O-])c2ccc(C(C#N)C3CCN(C4CCCCC4)CC3)cc2)cc1 (some centres not stated) | 136 nM | 45.1 nM | 58.8 nM | – | 7.14 nM
6 | COc1ccc([S@+]([O-])c2ccc(C(=O)C3CCN(C4CCCCC4)CC3)cc2)cc1 | 69.5 nM | 15.2 nM | 20.1 nM | – | 10.8 nM
7 | COc1ccc([S+]([O-])c2ccc(C(C)N3CCN(C4CCCCC4)CC3)cc2)cc1 (configuration not stated) | 6 nM | 2.2 nM | 0.97 nM | – | 1 nM
8 | COc1ccc(S(=O)(=O)c2ccc(C(C#N)C3CCN(C4CCCCC4)CC3)cc2)cc1 (configuration not stated) | 16.4 nM | – | – | – | 1.3 nM
9 | COc1ccc(S(=O)(=O)c2ccc(C(=O)C3CCN(C4CCCCC4)CC3)cc2)cc1 | 31.1 nM | 9.05 nM | 13.8 nM | – | 3.07 nM
10 | COc1ccc(S(=O)(=O)c2ccc(C(C#N)N3CCN(C4CCCCC4)CC3)cc2)cc1 (configuration not stated) | 71.8 nM | 18.6 nM | 6.8 nM | – | 7.3 nM

These reach a lower Ki [1]. Values come first.

Row | Ki [1] | Ki [2] | Ki [3] | Ki [4] | Ki [5] | SMILES
11 | 4.4 nM | – | – | – | 0.37 nM | C=C(c1ccc(Sc2ccc(OC)cc2)cc1)C1CCN(C2CCCCC2)CC1
12 | 2.8 nM | 0.33 nM | 0.48 nM | – | 0.17 nM | C=C(c1ccc(S(=O)(=O)c2ccc(OC)cc2)cc1)C1CCN(C2CCCCC2)CC1
13 | 2.14 nM | 0.32 nM | 0.38 nM | – | 0.057 nM | C=C(c1ccc([S@+]([O-])c2ccc(OC)cc2)cc1)C1CCN(C2CCCCC2)CC1
14 | 0.68 nM | 0.09 nM | 0.13 nM | – | 0.03 nM | C=C(c1ccc([S@@+]([O-])c2ccc(OC)cc2)cc1)C1CCN(C2CCCCC2)CC1
15 | 0.53 nM | 0.07 nM | 0.16 nM | 1.66 nM | 0.14 nM | COc1ccc([S+]([O-])c2ccc(C(C)C3CCN(C4CCCCC4)CC3)cc2)cc1 (configuration not stated)

Source: ChEMBL document CHEMBL1132745, “Diphenylsulfone muscarinic antagonists: piperidine derivatives with high M2 selectivity and improved potency” (Bioorg Med Chem Lett, 2000)
